Patent publication US4011313A, “Medicament preparations” (Syntex (U.S.A.) Inc., priority 1975, dated 1977)
Structures can show the parent of a compound that is named as a salt. Where two headings read alike, the source gives them in different places.

Assays:
[1] = PGE2 activity after storage at 60° C in glyme or triethylene glycol-dimethyl ether; type: physicochemical; conditions: nitrogen
Method: A formulation is prepared having 1 mg. PGE2 per ml. 1,2-dimethoxyethane. After 12 days storage at 60° C. under a nitrogen atmosphere, the PGE2 assays 100% of its initial activity.
A formulation is prepared having 1 mg. PGE2 per ml. of triethylene glycol-dimethyl ether. After 5 days storage at 60° C. under a nitrogen atmosphere, the PGE2 assays 100% of its initial activity.

[2] = PGE2 activity after storage at 80° C in polyethylene glycol-550-dimethyl ether; type: physicochemical; conditions: 1 mg PGE2, 0.01% edetic acid, 0.01% BHA, 0.01% BHT per ml polyethylene glycol-550-dimethyl ether, nitrogen, 18 days
Method: The following formulations are prepared having 1 mg. PGE2 per ml. of polyethylene glycol-550-dimethyl ether, and the additional material(s) as set forth below.
A formulation is prepared having 1 mg. PGE2 , 0.01% edetic acid, 0.01% BHA and 0.01% BHT per ml. polyethylene glycol-550-dimethyl ether, and sealed in an ampule under nitrogen atmosphere.

[3] = PGE2 activity after storage in polyethylene glycol comparison formulations; type: physicochemical
Method: By comparison, 1 mg. PGE2 and 1 ml. polyethylene glycol 400 assays 54% PGE2 activity after storage for two months at 45° C.; 0.2 mg. PGE2 in 2.7598 g. polyethylene glycol 4,000 assays 70% PGE2 activity after storage for 6 months at room temperature and 72% PGE2 activity after storage for 3 months at 45° C.; a suppository of 0.2 mg. PGE2 in 2.7298 g. base comprising 2% polyethylene glycol 4,000 and 98% polyethylene glycol 1,000 assays 62% PGE2 activity after storage for six months at room temperature; a formulation of PGE2 in polyethylene glycol 400 assays 73% PGE2 activity after 4 months at room temperature; and a formulation of PGE2 in polyethylene glycol 4000 assays 82% PGE2 activity after 5 months at room temperature.

[4] = General chemical stability of prostaglandins; type: physicochemical; conditions: with dimethyl ether of polyethylene glycol 550, extended period above room temperature
From the text: See, for example, Brummer J. Pharm. Pharmac. 23, 804 (1971), and Karim et al., European J. Pharmacol. 4, 416 (1968). It would, therefore, be desirable to have a prostaglandin preparation wherein the prostaglandin material is stabilized by the vehicle material.
The above and still further objects, features, and advantages of the present invention are achieved, in accordance therewith, by admixing a pharmaceutically active quantity of an active medicament material with a dialkylated mono- or poly-alkylene glycol optionally including an antioxidant for the glycol vehicle.

[5] = literature: Brummer 1971; Karim et al. 1968; cited from earlier work
[6] = Decomposition of aspirin vs. time at 80° C in vehicle, with extrapolated shelf-life; type: physicochemical; conditions: for shelf-life at 25° C: extrapolated from 80° C
Method: A formulation is prepared having 0.5 g. aspirin and 0.05% BHA per 1.0 g. polyethylene glycol-750-dimethyl ether, and stored at 80° C. Decomposition of the aspirin is measured vs. time. The time for 10% decomposition is 27 hours. This reflects approximately a 30 month shelf-life at 25° C. This can be compared to a published report[Jun et al., J. Pharm. Sec.
The time for 10% decomposition (t90) is 24 hours. This reflects approximately a 30 month shelf-life at 25° C. Thus, this Example describes the preparation of a liquid aspirin formulation which is stable for long periods of time at or about room temperature.
Sciences, 53, 815-818 (July, 1964).

[7] = in several polyethylene glycols, cited from earlier work
[8] = Chloramphenicol activity after storage at 80° C, with extrapolated shelf-life; conditions: for chloramphenicol percent of initial activity: 80° C
[9] = Nystatin activity after storage at 80° C; type: physicochemical; conditions: for nystatin percent of initial activity: 0.5 mg/ml in polyethylene glycol-350-dimethyl ether, 0.05% BHA, under air
From the text: Thus, the polyethylene glycol-350-dimethyl ether has a significant stabilizing effect on nystatin when compared to polyethylene glycol 400.

[10] = Oleic acid diethanolamide activity after storage at 80° C, with extrapolated shelf time; type: physicochemical
lipase = assay: In vitro lipase inhibition; type: biochemical
[11] = Storage stability of tetracyclines in cream-like and comparison formulations; conditions: for oxytetracycline hydrochloride percent of initial activity: Example XXXIX cream; for tetracycline activity remaining: after two weeks, 20160 min; for tetracycline activity remaining / stability of comparison formulation: room temperature
[12] = Palmitic acid diethanolamide stability at 80° C; type: physicochemical; conditions: under air, 14 days
From the text: The formulation remains undecomposed after 14 days. The same result is attained with a formulation which additionally contains 0.05% BHA.

[13] = In vitro human skin penetration of labeled (H^3) tetracycline hydrochloride; conditions: cream-like preparation vs 0.5% in 75% propylene glycol and 0.05% in pH 6.6 buffer (both saturated solutions)
[14] = polyethylene glycol 400 in place of dialkylated vehicle, 2 days
[15] = 0.05% tetracycline hydrochloride in pH 6.6 buffer
[16] = 0.5% tetracycline hydrochloride in 75% propylene glycol

With CCCCC[C@H](O)/C=C/[C@H]1[C@H](O)CC(=O)[C@@H]1C/C=C\CCCC(=O)O [PGE2, 11α,15α-dihydroxy-9-keto-5,13-prostadienoic acid] the “PGE2 percent of initial activity” value ([1]; 1 mg/ml in 1,2-dimethoxyethane, 12 days) was 100%, the “PGE2 percent of initial activity” value ([1]; 1 mg/ml in triethylene glycol-dimethyl ether, 5 days) was 100% and the “PGE2 percent of initial activity” value [2] was 100%. The “PGE2 activity after storage” value ([3]; 0.2 mg PGE2 in 2.7598 g polyethylene glycol 4,000, 3 months, 45° C, 129600 min) was 72%, the “PGE2 activity after storage” value ([3]; 0.2 mg PGE2 in 2.7598 g polyethylene glycol 4,000, 6 months, room temperature, 259200 min) was 70% and the “PGE2 activity after storage” value ([3]; 1 mg PGE2 and 1 ml polyethylene glycol 400, two months, 45° C, 86400 min) was 54%. For the same compound, the “PGE2 activity after storage” value ([3]; in polyethylene glycol 400, 4 months, room temperature, 172800 min) was 73%, the “PGE2 activity after storage” value ([3]; in polyethylene glycol 4000, 5 months, room temperature, 216000 min) was 82% and the “PGE2 activity after storage” value ([3]; suppository, 0.2 mg PGE2 in 2.7298 g base (2% polyethylene glycol 4,000, 98% polyethylene glycol 1,000), six months, room temperature, 259200 min) was 62%. The “chemical stability after storage” value [4] was “high degree of chemical stability” and the chemical stability [5] was “relatively unstable”.
For CC(=O)Oc1ccccc1C(=O)O [aspirin, acetylsalicylic acid], the “time for 10% decomposition (t90)” value ([6]; 100 mg aspirin per ml polyethylene glycol-350-dimethyl ether, under air, 80° C) was 24 h, the “time for 10% decomposition” value ([6]; 0.5 g aspirin and 0.05% BHA per 1.0 g polyethylene glycol-750-dimethyl ether, 80° C) was 27 h and the “shelf-life at 25° C” value ([6]; polyethylene glycol-350-dimethyl ether, under air) was roughly 30 month. The “shelf-life at 25° C” value ([6]; polyethylene glycol-750-dimethyl ether with 0.05% BHA) was roughly 30 month, the “time for 10% decomposition” value ([7]; 80° C, Jun et al. 1972) was 2 h and the “shelf-life at 25° C” value ([7]; from published report Jun et al. 1972) was 3.5 months.
For O=C(N[C@H](CO)[C@H](O)c1ccc([N+](=O)[O-])cc1)C(Cl)Cl [chloramphenicol], the “chloramphenicol percent of initial activity” value (shortened to “chloramphenicol percent”) ([8]; 0.5 mg/ml in polyethylene glycol-350-dimethyl ether, 0.05% BHA, under air, 2 days) was 95%, the “chloramphenicol percent” value ([8]; 0.5 mg/ml in polyethylene glycol-350-dimethyl ether, 0.05% BHA, under air, 5 days) was 66% and the “chloramphenicol percent” value [8, 14] was 50%. The “chloramphenicol percent” value ([8]; polyethylene glycol 400 in place of dialkylated vehicle, 5 days) was “less than 20%” and the “shelf-life at room temperature” value ([8]; polyethylene glycol-350-dimethyl ether, 0.05% BHA, extrapolated from 80° C) was “at least 1 year”.
For C[C@@H]1[C@H](O)[C@@H](C)/C=C/C=C/CC/C=C/C=C/C=C/C=C/C(O[C@H]2O[C@H](C)[C@@H](O)[C@H](N)[C@@H]2O)CC2O[C@](O)(CC(O)C(O)CCC(O)CC(O)CC(O)CC(=O)O[C@H]1C)CC(O)C2C(=O)O (stereo partly drawn) [nystatin], the “nystatin percent of initial activity” value ([9]; 2 days) was 56%, the “nystatin percent of initial activity” value ([9]; 5 days) was “less than 40%” and the “decomposition (loss of activity)” value [9, 14] was “total decomposition”.
With CCCCCCCC/C=C\CCCCCCCC(=O)N(CCO)CCO [oleic acid diethanolamide] the “oleamide percent of initial activity” value ([10]; 2 mg/ml in 1,2-dimethoxyethane with 0.025% BHT and 0.025% BHA, 5 weeks, 80° C, 50400 min) was 96%, the “shelf time at 25° C” value ([10]; approximately, 1,2-dimethoxyethane with BHT and BHA, extrapolated from 80° C) was 3-4 years and the lipase inhibition (lipase) was “inhibits lipase”.
In the case of CN(C)C1C(=O)C(C(N)=O)=C(O)C2(O)C(=O)C3=C(O)c4c(O)cccc4C(C)(O)C3C(O)C12 (stereo not drawn) [oxytetracycline hydrochloride], the “oxytetracycline hydrochloride percent of initial activity” value (“oxytetracycline hydrochloride percent” below) ([11]; 2 months, 45° C, 86400 min) is reported as 92%, the “oxytetracycline hydrochloride percent” value ([11]; 3 months, 37° C, 129600 min) is reported as 92% and the “oxytetracycline hydrochloride percent” value ([11]; 4 months, 45° C, 172800 min) is reported as 75%.
In the case of CCCCCCCCCCCCCCCC(=O)N(CCO)CCO [palmitic acid diethanolamide], the decomposition after storage ([12]; 5 mg/ml in polyethylene glycol-350-dimethyl ether with 0.05% BHA) is reported as “undecomposed” and the decomposition after storage ([12]; 5 mg/ml in polyethylene glycol-350-dimethyl ether) is reported as “undecomposed”.
With CN(C)C1C(=O)C(C(N)=O)=C(O)C2(O)C(=O)C3=C(O)c4c(O)cccc4C(C)(O)C3CC12 (stereo not drawn) [tetracycline hydrochloride] the skin penetration [13] was “equivalent skin penetration”, the tetracycline activity remaining [11, 15] was “less than 50%” and the “stability of comparison formulation” value [11, 15] was “highly unstable”. For the same compound, the tetracycline activity remaining [11, 16] was “less than 50%”, the “stability of comparison formulation” value [11, 16] was “highly unstable” and the “tetracycline hydrochloride percent of initial activity” value ([11]; Example XXXVIII cream: 1.0% drug, 79.0% polyethylene glycol-350-dimethyl ether, 20.0% polyethylene glycol-6000-dimethyl ether, 0.05% BHA, 4 months, 45° C, 175200 min) was 98%.
